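All cell lines were grown in 96-well plates and treated with compound for 48 hours. Here, GI50 denotes the concentration required for 50% inhibition of growth.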 Active and inactive are the calls of the source. No stated cut-off is given here; in the data, active = GI50 up to about 1.1 µM and inactive = higher.
Tests used:
Assay in all cases: NCI tumour cell line growth inhibition, 48 h
K562 = tested on: K562
OVCAR-4 = tested on: OVCAR-4
OVCAR-8 = tested on: OVCAR-8
CCRF-CEM = tested on: CCRF-CEM
HCT-116 = tested on: HCT-116
SNB-19 = tested on: SNB-19
NCI-H460 = tested on: NCI-H460
PC-3 = tested on: PC-3
HCC 2998 = tested on: HCC 2998
MCF7 = tested on: MCF7
M14 = tested on: M14
U-251 = tested on: U-251
NCI-H226 = tested on: NCI-H226
SN12C = tested on: SN12C
HL-60 = tested on: HL-60
EKVX = tested on: EKVX
DU-145 = tested on: DU-145
LOX IMVI = tested on: LOX IMVI
RPMI-8226 = tested on: RPMI-8226
SW-620 = tested on: SW-620

Row | Compound | GI50 (K562) | GI50 (OVCAR-4) | GI50 (OVCAR-8) | GI50 (CCRF-CEM) | GI50 (HCT-116) | GI50 (SNB-19) | GI50 (NCI-H460) | GI50 (PC-3) | GI50 (HCC 2998) | GI50 (MCF7) | GI50 (M14) | GI50 (U-251) | GI50 (NCI-H226) | GI50 (SN12C) | GI50 (HL-60) | GI50 (EKVX) | GI50 (DU-145) | GI50 (LOX IMVI) | GI50 (RPMI-8226) | GI50 (SW-620)
1 | Cc1ccnc2nc(-c3ccc(F)cc3)cc(O)c12 | 5.55 µM (inactive) | 77.6 µM (inactive) | > 100 µM (inactive) | 75.9 µM (inactive) | 16.9 µM (inactive) | > 78.7 µM (inactive) | 13.2 µM (inactive) | > 80.4 µM (inactive) | 60 µM (inactive) | 24.5 µM (inactive) | 28.4 µM (inactive) | 38 µM (inactive) | 64 µM (inactive) | > 100 µM (inactive) | 5.97 µM (inactive) | 79.6 µM (inactive) | > 69.5 µM (inactive) | 26.2 µM (inactive) | 35.3 µM (inactive) | 33.7 µM (inactive)
2 | Cc1cc(Nc2ccc(S(=O)(=O)O)c3cc(S(=O)(=O)O)cc(S(=O)(=O)O)c23)c2ccccc2n1 |  | > 100 µM (inactive) | > 100 µM (inactive) |  | > 100 µM (inactive) | > 100 µM (inactive) | > 100 µM (inactive) | > 100 µM (inactive) | > 100 µM (inactive) | > 100 µM (inactive) | > 100 µM (inactive) | > 100 µM (inactive) | > 100 µM (inactive) | > 100 µM (inactive) | > 100 µM (inactive) | > 100 µM (inactive) | > 100 µM (inactive) | > 100 µM (inactive) | > 100 µM (inactive) | > 100 µM (inactive)
3 | CCOP(=O)(OCC)C(c1ccc(F)cc1)N(C(=O)NC(F)(F)F)c1ccc(F)cc1 (stereo unspecified) | > 100 µM (inactive) |  | > 100 µM (inactive) | > 100 µM (inactive) | > 100 µM (inactive) | > 100 µM (inactive) | > 100 µM (inactive) | > 100 µM (inactive) | > 100 µM (inactive) | > 100 µM (inactive) | > 100 µM (inactive) | > 100 µM (inactive) | > 100 µM (inactive) | > 100 µM (inactive) | > 100 µM (inactive) | > 100 µM (inactive) | > 100 µM (inactive) | > 100 µM (inactive) | > 100 µM (inactive) | > 100 µM (inactive)
4 | O=C1CC(O)c2cscc21 (stereo unspecified) | 38.1 µM (inactive) | > 100 µM (inactive) | 65.9 µM (inactive) | 21.6 µM (inactive) | > 100 µM (inactive) |  | > 100 µM (inactive) | > 100 µM (inactive) | 32.2 µM (inactive) | > 100 µM (inactive) |  | > 100 µM (inactive) | > 100 µM (inactive) | > 100 µM (inactive) | > 100 µM (inactive) | > 100 µM (inactive) | > 100 µM (inactive) | 36.5 µM (inactive) | 35.3 µM (inactive) | 37.8 µM (inactive)
5 | c1ccc(-c2c3c(nc4c2CC[C@H]4NC2=NCCN2)[C@@H](NC2=NCCN2)CC3)cc1 | > 100 µM (inactive) | > 100 µM (inactive) | > 100 µM (inactive) | > 100 µM (inactive) | 48.5 µM (inactive) |  | 29.2 µM (inactive) | 98.2 µM (inactive) | 27 µM (inactive) | > 100 µM (inactive) | > 100 µM (inactive) | 9.31 µM (inactive) | > 73.1 µM (inactive) | > 100 µM (inactive) | 11.2 µM (inactive) | > 100 µM (inactive) | > 100 µM (inactive) | 59 µM (inactive) |  | > 100 µM (inactive)
6 | COc1cc(/C=C/C(=O)OCC23CC[C@@]4(C(=O)O)CCC(C)[C@H](C)C4C2=CCC2[C@@]4(C)CC[C@H](O)C(C)(C)C4CC[C@]23C)ccc1O (stereo partly specified) | 27 µM (inactive) | 17.5 µM (inactive) | 15.9 µM (inactive) | 4.59 µM (inactive) | 17.5 µM (inactive) | 31.2 µM (inactive) | 11.4 µM (inactive) | 16.3 µM (inactive) | 54.1 µM (inactive) | 10.7 µM (inactive) | 23.2 µM (inactive) | 27.9 µM (inactive) | 27.5 µM (inactive) | 8.09 µM (inactive) | 23.4 µM (inactive) | 15.5 µM (inactive) | 10.2 µM (inactive) | 15.6 µM (inactive) |  | 37.7 µM (inactive)
7 | Cc1cc2ncn(C3CCCO3)c2cc1C (stereo unspecified) | > 100 µM (inactive) | > 100 µM (inactive) | > 100 µM (inactive) | > 100 µM (inactive) | > 100 µM (inactive) | > 100 µM (inactive) |  | > 100 µM (inactive) | > 100 µM (inactive) | > 100 µM (inactive) | > 100 µM (inactive) | > 100 µM (inactive) | > 100 µM (inactive) | > 100 µM (inactive) | > 100 µM (inactive) | > 100 µM (inactive) | > 100 µM (inactive) | > 100 µM (inactive) | > 100 µM (inactive) | > 100 µM (inactive)
8 | COc1ccc(/C=C\c2cc(OC)c(OC)c(OC)c2)c(O)c1O [COMBRETASTATIN A-1] | 0.05 µM (active) | 2.2 µM (inactive) | 0.0881 µM (active) | 0.0682 µM (active) |  |  | 0.0463 µM (active) | < 0.0103 µM (active) | 0.166 µM (active) | < 0.01 µM (active) | 0.0953 µM (active) | 0.0759 µM (active) |  | 0.256 µM (active) | 0.0698 µM (active) | 1.99 µM (inactive) | 0.0127 µM (active) | 0.119 µM (active) | 0.0757 µM (active) | 0.0643 µM (active)
9 | C/C(Cc1ccc2c(c1)OCO2)=N\N=c1\sc2ccccc2n1C | > 100 µM (inactive) | > 100 µM (inactive) | > 100 µM (inactive) | 92.5 µM (inactive) | 48.5 µM (inactive) | > 100 µM (inactive) |  | 97.1 µM (inactive) | > 100 µM (inactive) | 72.9 µM (inactive) | > 100 µM (inactive) | > 100 µM (inactive) | > 100 µM (inactive) | > 100 µM (inactive) | > 100 µM (inactive) | 24.8 µM (inactive) | > 100 µM (inactive) | > 100 µM (inactive) | 65.9 µM (inactive) | > 100 µM (inactive)
10 | NNc1[nH]c(=S)[nH]c1C(N)=O |  | > 100 µM (inactive) | > 100 µM (inactive) | > 100 µM (inactive) | > 100 µM (inactive) |  | > 100 µM (inactive) | > 100 µM (inactive) | > 100 µM (inactive) | > 100 µM (inactive) | > 100 µM (inactive) | > 100 µM (inactive) | > 100 µM (inactive) | > 100 µM (inactive) | > 100 µM (inactive) | > 100 µM (inactive) | > 100 µM (inactive) | > 100 µM (inactive) | > 100 µM (inactive) | > 100 µM (inactive)
11 | c1ccc2c(c1)nc1n2CNCC1 |  | > 100 µM (inactive) | 58.5 µM (inactive) |  | 43.2 µM (inactive) | > 100 µM (inactive) | > 100 µM (inactive) | > 100 µM (inactive) | > 100 µM (inactive) | 45.7 µM (inactive) | > 100 µM (inactive) | > 100 µM (inactive) | > 100 µM (inactive) | > 100 µM (inactive) | 68.5 µM (inactive) | > 100 µM (inactive) | 43.3 µM (inactive) | 24.2 µM (inactive) | 26.4 µM (inactive) | 34.7 µM (inactive)
12 | C[Si](C)(C)C1=C2C(=O)c3ccccc3C(=O)C2=C([Si](C)(C)C)[C@@H]2CCCC[C@H]12 | > 100 µM (inactive) | 95.3 µM (inactive) |  | > 100 µM (inactive) | > 100 µM (inactive) | > 100 µM (inactive) | > 100 µM (inactive) | > 100 µM (inactive) | > 100 µM (inactive) | > 100 µM (inactive) | > 100 µM (inactive) | > 100 µM (inactive) |  | > 100 µM (inactive) | > 100 µM (inactive) | > 100 µM (inactive) | > 100 µM (inactive) | > 100 µM (inactive) | > 100 µM (inactive) | > 100 µM (inactive)
13 | CC(NC(CC12CC3CC(CC(C3)C1)C2)C(N)=O)c1ccccc1 (stereo unspecified) | 17.5 µM (inactive) | 33.7 µM (inactive) | 23.6 µM (inactive) | 19.1 µM (inactive) | 18.7 µM (inactive) | 28.9 µM (inactive) | 17.4 µM (inactive) | 27 µM (inactive) | 17.5 µM (inactive) | 35 µM (inactive) | 21.1 µM (inactive) | 13.3 µM (inactive) |  |  | 10.1 µM (inactive) | 23.4 µM (inactive) | 24.7 µM (inactive) | 15.7 µM (inactive) | 15.7 µM (inactive) | 31.1 µM (inactive)
14 | COc1ccc(C2(C3c4cc(OC)c(OC)cc4CCN3C)SCCCS2)cc1O (stereo unspecified) | 95.1 µM (inactive) | > 100 µM (inactive) | > 100 µM (inactive) | > 100 µM (inactive) | 67.9 µM (inactive) | > 100 µM (inactive) | > 100 µM (inactive) | 47.1 µM (inactive) | > 100 µM (inactive) | > 100 µM (inactive) | > 100 µM (inactive) | > 100 µM (inactive) |  | > 100 µM (inactive) | > 100 µM (inactive) | 60 µM (inactive) | > 100 µM (inactive) | > 100 µM (inactive) | > 100 µM (inactive) | > 100 µM (inactive)
15 | Cc1cn(C2CC(O)C(Cn3nncc3Cn3cnc4c(N)ncnc43)O2)c(=O)[nH]c1=O (stereo unspecified) |  | > 100 µM (inactive) | 26.4 µM (inactive) | > 100 µM (inactive) | > 100 µM (inactive) | > 100 µM (inactive) |  | > 100 µM (inactive) | > 100 µM (inactive) | > 100 µM (inactive) | > 100 µM (inactive) | > 100 µM (inactive) | > 100 µM (inactive) | > 100 µM (inactive) | > 100 µM (inactive) | > 100 µM (inactive) | > 100 µM (inactive) | > 100 µM (inactive) | > 100 µM (inactive) | > 100 µM (inactive)
